Laboratory results taken from ChEMBL document CHEMBL3808302, “Novel Inhibitors of Toxin HipA Reduce Multidrug Tolerant Persisters” (ACS Med Chem Lett, 2016).
Active and inactive are the calls of the source. The calls are words filed in the database; no cut-off is given here.

Tests used:
[1] = test system: T1, Serine/threonine-protein kinase toxin HipA (Escherichia coli (strain K12)), P23874 [D309Q]; test: Binding affinity to Escherichia coli HipA D309Q mutant expressed in Escherichia coli BL21 (DE3) assessed as slow-on/fast-off type binding at 3.125 to 87.5 uM by surface plasmon resonance assay
T1 sequence (whole entry): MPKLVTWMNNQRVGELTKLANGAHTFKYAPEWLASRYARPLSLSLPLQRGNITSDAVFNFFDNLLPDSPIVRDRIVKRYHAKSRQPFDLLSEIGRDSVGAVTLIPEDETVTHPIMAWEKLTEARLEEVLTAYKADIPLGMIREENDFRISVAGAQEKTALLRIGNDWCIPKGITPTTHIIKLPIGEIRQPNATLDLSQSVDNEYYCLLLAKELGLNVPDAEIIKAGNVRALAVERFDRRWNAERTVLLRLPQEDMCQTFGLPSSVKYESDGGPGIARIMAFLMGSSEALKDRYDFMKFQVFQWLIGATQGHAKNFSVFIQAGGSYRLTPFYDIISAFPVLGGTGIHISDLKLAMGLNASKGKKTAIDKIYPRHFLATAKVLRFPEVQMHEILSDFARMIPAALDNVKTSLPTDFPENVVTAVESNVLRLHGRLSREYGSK

Escherichia coli K-12 [2] = test: (§1) Inhibition of HipA in Escherichia coli K-12 MG1655 assessed as reduction of persister fraction incubated for 8 hrs in presence of kanamycin
[3] = as §1
[4] = test system: T1, Serine/threonine-protein kinase toxin HipA (Escherichia coli (strain K12)), P23874 [D309Q]; test: (§2) Binding affinity to Escherichia coli HipA D309Q mutant expressed in Escherichia coli BL21 (DE3) by surface plasmon resonance assay
[5] = target: Serine/threonine-protein kinase toxin HipA (Escherichia coli (strain K12), UniProt P23874, D309Q); test: as §2
Escherichia coli K-12 [6] = test: (§3) Inhibition of HipA in Escherichia coli K-12 MG1655 assessed as reduction of persister fraction incubated for 8 hrs in presence of ampicillin
[7] = as §3
Escherichia coli K-12 [8] = test: Inhibition of HipA in Escherichia coli K-12 MG1655 assessed as reduction of persister fraction at 250 uM incubated for 8 hrs in presence of ampicillin relative to control
Escherichia coli [9] = test: Cytotoxicity against Escherichia coli K-12 MG1655 cells at 250 uM; format: organism-based
[10] = test system: T1, Serine/threonine-protein kinase toxin HipA (Escherichia coli (strain K12)), P23874 [D309Q]; test: Binding affinity to Escherichia coli HipA D309Q mutant expressed in Escherichia coli BL21 (DE3) assessed as slow-on/fast-off type binding at 0.00015 to 8.75 uM by surface plasmon resonance assay
Escherichia coli K-12 [11] = test: Inhibition of HipA in Escherichia coli K-12 MG1655 assessed as reduction of persister fraction incubated for 8 hrs in presence of kanamycin relative to control
[12] = test system: T1, Serine/threonine-protein kinase toxin HipA (Escherichia coli (strain K12)), P23874 [D309Q]; test: Binding affinity to Escherichia coli HipA D309Q mutant expressed in Escherichia coli BL21 (DE3) assessed as slow-on/slow-off type binding at 3.125 to 100 uM by surface plasmon resonance assay
Escherichia coli [13] = test: Antipersistence effect in hipA knockout Escherichia coli assessed as reduction of persister fraction at 200 uM in presence of ampicillin; format: functional, organism-based
[14] = test system: T1, Serine/threonine-protein kinase toxin HipA (Escherichia coli (strain K12)), P23874 [D309Q]; test: Binding affinity to Escherichia coli HipA D309Q mutant expressed in Escherichia coli BL21 (DE3) assessed as fast-on/fast-off type binding at 6.25 to 100 uM by surface plasmon resonance assay

Row | Structure (SMILES) | Activity [1] | inhibition (Escherichia coli K-12 [2]) | EC50 [3] | Activity [4] | Kd [5] | inhibition (Escherichia coli K-12 [6]) | EC50 [7] | fold change (FC) (Escherichia coli K-12 [8]) | Activity (Escherichia coli [9]) | Activity [10] | fold change (FC) (Escherichia coli K-12 [11]) | Activity [12] | Activity (Escherichia coli [13]) | Activity [14]
1 | CCOC(=O)c1ccc(NC(=O)CSc2nnc(CSc3nc(C)cc(C)n3)o2)cc1 | Active | Dose-dependent effect | 43 µM | Dose-dependent effect | 35 µM | Dose-dependent effect | 116 µM | 2 | Non-toxic | Active | 3 |  |  | 
2 | COc1cc(NC(=O)c2cc3nc(-c4ccc(F)cc4)cc(C)n3n2)cc([N+](=O)[O-])c1 |  | Dose-dependent effect | 101 µM | Dose-dependent effect | 43 µM | Dose-dependent effect | 84 µM | 5 | Non-toxic |  | 5 | Active |  | 
3 | CCc1ccc(C2C(C(=O)c3ccc(OC)cc3)=C(O)C(=O)N2CCc2c[nH]c3ccccc23)cc1 (stereo not drawn) | Active | Dose-dependent effect | 28 µM | Dose-dependent effect | 0.27 µM | Dose-dependent effect | 46 µM | 5 | Non-toxic | Active | > 1 |  | inactive | 
4 | CCN1CCN(CCNC(=O)c2cccc(Nc3cc(-c4ccccc4)ncn3)c2)CC1 |  | Dose-dependent effect | 111 µM | Dose-dependent effect | 54 µM | Dose-dependent effect | 126 µM | 5 | Non-toxic |  | 5 |  |  | Active
